In patent US11040108B2, “Amino acid- and peptide-steroid conjugates and use thereof” (BRANDEIS UNIVERSITY, priority 2016, dated 2021):
Where two headings read alike, the source gives them in different places.

Key:
[1] = test system: Saos-2 osteosarcoma cells; test: MTT assay, cell viability of Saos-2; format: cell-based; details: Homo sapiens, read-out: IC50 against Saos-2
Procedure: (§1) HeLa, Saos-2, HS-5, HepG2, T98G, and A2780 cells were purchased from American-type Culture Collection (ATCC, USA). A2780cis cell was purchased from Sigma. HeLa cells, HepG-2 cells, and T98G cells were cultured in MEM Medium supplemented with 10% v/v fetal bovine serum, 100 U/mL penicillin, and 100 μg/mL streptomycin. Saos-2 cells were cultured in McCoy's 5a Medium (for Saos-2) supplemented with 15% v/v fetal bovine serum, 100 U/mL penicillin, and 100 μg/mL streptomycin. HS-5 cells were cultured in Dulbecco's Modified Eagle's medium (DMEM) supplemented with 10% v fetal bovine serum (FBS), 100 U/mL penicillin, and 100 μg/mL streptomycin. A2780cis cells were cultured in RPMI 1640 Medium supplemented with 10% v/v fetal bovine serum, 100 U/mL penicillin, and 100 μg/mL streptomycin (cisplatin only necessary every 2-3 passages). All cells were maintained at 37° C. in a humidified atmosphere of 5% CO2.
(§2) An MTT assay was used to test the cytotoxicity. All different cell lines were seeded in 96-well plates at 1×10^5 cells/well for 24 hours followed by removal of the culture medium and subsequent addition of culture medium containing different concentrations of the precursors. […] The absorbance of each well at 595 nm was measured by a multimode microplate reader. […]

T98G glioblastoma cells = test: MTT assay, cell viability of T98G; format: cell-based; details: Homo sapiens, read-out: IC50 against T98G
Procedure: as §1, §2

[2] = test system: HS-5 cell line (human bone marrow stroma cell line); test: MTT assay, cell viability of HS-5; format: cell-based; details: for IC50: Homo sapiens, HS5, read-out: IC50 against HS-5
Procedure: as §1
(§3) An MTT assay was used to test the cytotoxicity. All different cell lines were seeded in 96-well plates at 1×10^5 cells/well for 24 hours followed by removal of the culture medium and subsequent addition of culture medium containing different concentrations of the precursors. At designated time (24/48/72 hours), 10 μL MTT solution (5 mg/mL) was added to each well and incubated at 37° C. for another 4 hours, and then 100 μL of SDS-HCl solution was added to stop the reduction reaction and dissolve the purple formazan. The absorbance of each well at 595 nm was measured by a multimode microplate reader. The cytotoxicity assay was performed three times and the average value of the three measurements was taken.
To verify the selectivity of 1a against cancer cells, the HS-5 cell line (human bone marrow stroma cell line) was used; HS-5 hardly overexpresses ALP on cell surface. […] To further confirm that ALP on cell surface (i.e., as an ectophosphatase) contributed to the inhibitory activity of 1a, A2780cis were incubated with 1a and ALP (1 U/mL).
Additional cell viability assays were carried out using conjugates 1a and 1b, optionally with 3, against HepG2 human liver carcinoma cells, Saos-2 osteosarcoma cells, T98G glioblastoma cells, HS-5 (normal bone marrow stromal cells), A2780 ovarian cancer cells (parental line to A2780cis), and Kuramochi ovarian cancer cells. Conjugate 1a was particularly effective against ovarian and cervical cancer cells.

A2780 cell line = test: Cell viability of unstimulated or selected A2780 cell line (acquired resistance); format: cell-based; details: after five weeks treatment with gradually increased concentrations; 24, 48, 72 h
Procedure: as §3
The activity of 1a against non-drug resistant cancer cells was assessed using the A2780 cell line.

[3] = test system: F-actin in A2780cis cells; test: Actin staining (CLSM), A2780cis; format: cell-based, human; details: 1a 12.5 μM, 12 hours
Procedure: Cells in exponential growth phase were seeded in confocal dish (3.5 cm) at 1×10^5 to 2×10^5 cells per dish. After putting the dish in incubator for 24 hours, culture medium was removed, and fresh medium containing precursor (12.5 μM 1a for A2780cis, 25 μM 1a for HeLa) was added. After 12 hours, the medium was removed and PBS was used to wash the cells for three times. After fixing by 4% paraformaldehyde for 15 minutes, 1 mL of 0.1% Triton X-100 in PBS buffer was added for 30 minutes. After washing the cells three times by PBS, 1 mL of 0.1% BSA in PBS was added for 30 minutes, and then the cells were washed by PBS for three times. 1 mL of PBS containing 5 unit of Alexa 633 was added to the cells for 1 hour. After removing the buffer and washing the cells three times by PBS, 1 mL of Hoechst (1 μg/mL) was added for 10 minutes. Then, the cells were washed three times with PBS buffer before imaging. […]

F-actin in HeLa cells = test: Actin staining (CLSM), HeLa; format: cell-based, human; details: 1a 25 μM, 12 hours
Procedure: Cells in exponential growth phase were seeded in confocal dish (3.5 cm) at 1×10^5 to 2×10^5 cells per dish. After putting the dish in incubator for 24 hours, culture medium was removed, and fresh medium containing precursor (12.5 μM 1a for A2780cis, 25 μM 1a for HeLa) was added. After 12 hours, the medium was removed and PBS was used to wash the cells for three times. After fixing by 4% paraformaldehyde for 15 minutes, 1 mL of 0.1% Triton X-100 in PBS buffer was added for 30 minutes. After washing the cells three times by PBS, 1 mL of 0.1% BSA in PBS was added for 30 minutes, and then the cells were washed by PBS for three times. 1 mL of PBS containing 5 unit of Alexa 633 was added to the cells for 1 hour. After removing the buffer and washing the cells three times by PBS, 1 mL of Hoechst (1 μg/mL) was added for 10 minutes. Then, the cells were washed three times with PBS buffer before imaging.
Similar to the case of A2780cis, the change of the viability of the HeLa cells co-incubated with 1a and several specific inhibitors was examined to understand the mechanism of cell death. […] To verify the assemblies of 1b interact with F-actin, actin tracker was used to visualize F-actin filament in HeLa cells.

[4] = TEM of assemblies in aqueous solution; format: physicochemical; details: 1.0 wt %
Procedure: Sample solution (5 sufficient to cover the grid surface) was placed on the grid. Approximately 10 sec later, sample was rinsed by placing a large drop of the ddH2O on parafilm and allowing the grid to touch the water drop, with the sample-loaded surface facing the parafilm. The grid was tilted and water was gently absorbed from the edge of the grid using a filter paper sliver. This procedure was repeated 3 times. Immediately after rinsing, the staining was conducted by placing a large drop of the uranyl acetate (UA) stain solution on parafilm and allowing the grid to touch the stain solution drop, with the sample-loaded surface facing the parafilm. The grid was tilted and the stain solution was gently absorbed from the edge of the grid using a filter paper sliver. Next, the grid was allowed to dry in air and the grid was examined as soon as possible.
To further understand the inhibitory activity of 1a, transmission electron microscopy (TEM) was used to confirm the EISA of 1b. […] In contrast, uniform nanofibers (diameter of 10±2 nm) formed after the addition of ALP (1 U/mL) into the solution of 1a (FIG. 3B). The resulted nanofibers entangled with each other to result in a viscous solution. […] But the direct dissolution of 2b (1.0 wt %) provided an aqueous solution containing nanoribbon with the diameter of 17±2 nm and in several hundred nanometer length (FIG. 4B). These observations, collectively, confirmed that enzymatic reaction modulated the morphology of the assemblies of the cholesterol conjugates, which partially contributed to the different inhibitory activities of 1a, 1b, 2a, and 2b. That is, being exposed to the cancer cell, 1a (or 2a) turns into 1b (or 2b), a process catalyzed by the extra- or intracellular enzymes of the cancer cells; the resulting 1b (or 2b) self-assembled to form nanoscale assemblies that result in death of the cancer cell.

CC(C)CCC[C@@H](C)C1CC[C@H]2[C@@H]3CC=C4CC(OC(=O)NC(Cc5ccc(OP(=O)(O)O)cc5)C(=O)O)CC[C@]4(C)[C@H]3CC[C@]12C (stereo partly drawn) [1a, Cholesterol-(phospho)D-Tyr]
IC50 ([1]; 48 hours): 41 µM | IC50 ([1]; 72 hours): 26 µM | IC50 (T98G glioblastoma cells; 48 hours): 48 µM | IC50 (T98G glioblastoma cells; 72 hours): 37 µM | cell viability / proliferation of HS-5 ([2]; 12.5 μM, 48 hours (FIG. 5A)): innocuous | IC50 ([2]; 48 hours): 32 µM | IC50 ([2]; 72 hours): 21 µM | inhibition of A2780 and acquired drug resistance (A2780 cell line): able to inhibit ovarian cancer cells without acquired drug resistance | F-actin filaments [3]: short, ill-defined actin filament | F-actin filaments (F-actin in HeLa cells): considerably decreased actin filaments | morphology in aqueous solution without ALP ([4]; pH 7.4): disorder aggregates | diameter of nanofibers formed after addition of ALP ([4]; pH 7.4, ALP 1 U/mL, 24 hours): 10±2 nm
